Tests used:
Test in all cases: Cancer cell proliferation assay (acid phosphatase)
Assay type in all cases: cell-based
HCT-116 (colon) = conditions: Homo sapiens, HCT-116; Table 6E; read-out: Proliferation IC50 (nM) CRC HCT-116
Summary of the method: (§1)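 Cells seeded at 4×10^4 cells/ml were incubated overnight at 37° C., 5% CO2, then exposed to compound at varying concentrations in triplicate for 72 hrs. Proliferation was read by acid phosphatase assay (p-nitrophenol phosphate, pH 5.5, 2 hours, 405 nm minus 620 nm) as percent inhibition versus DMSO controls.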

JEKO-1 (lymophoma) = conditions: Homo sapiens, Table 6E, read-out: Proliferation IC50 (nM) Mantle Cell Jeko-1
Summary of the method: as §1

Mantle Cell Mino = conditions: Homo sapiens, Table 6E
Summary of the method: as §1

Ovarian (A2780) = conditions: Homo sapiens, Table 6E
Summary of the method: as §1

Ovarian (OAW42) = conditions: Homo sapiens, OAW-42; Table 6E
Summary of the method: as §1

TOV-112D (ovarian) = conditions: Homo sapiens, TOV112D; Table 6E; read-out: Proliferation IC50 (nM) Ovarian TOV112D
Summary of the method: as §1

TOV-21G (ovarian) = conditions: Homo sapiens, TOV21G; Table 6E; read-out: Proliferation IC50 (nM) Ovarian TOV21G
Summary of the method: as §1

Work on `Cc1ccccc1C(=O)Nc1nc(NC(=O)c2ccccc2C)n(-c2ccccc2)n1` [Compound F, 2-methyl-N-[5-[(2-methylbenzoyl)amino]-1-phenyl-1,2,4-triazol-3-yl]benzamide] yielded an IC50 (HCT-116 (colon)) of 1300 nM, an IC50 (JEKO-1 (lymophoma)) greater than 2500 nM and an IC50 (Mantle Cell Mino) of 884 nM. The IC50 (Ovarian (A2780)) was 1300 nM, the IC50 (Ovarian (OAW42)) was greater than 2500 nM and the IC50 (TOV-112D (ovarian)) was 850 nM. For the same compound, the IC50 (TOV-21G (ovarian)) was 1500 nM.
